biological target: T1, BT4193 (Bacteroides thetaiotaomicron, UniProt Q8A028); assay: GP-AMC cleavage fluorescence, dose-response four-parameter fit; assay type: biochemical
T1 sequence (Q8A028 20-736): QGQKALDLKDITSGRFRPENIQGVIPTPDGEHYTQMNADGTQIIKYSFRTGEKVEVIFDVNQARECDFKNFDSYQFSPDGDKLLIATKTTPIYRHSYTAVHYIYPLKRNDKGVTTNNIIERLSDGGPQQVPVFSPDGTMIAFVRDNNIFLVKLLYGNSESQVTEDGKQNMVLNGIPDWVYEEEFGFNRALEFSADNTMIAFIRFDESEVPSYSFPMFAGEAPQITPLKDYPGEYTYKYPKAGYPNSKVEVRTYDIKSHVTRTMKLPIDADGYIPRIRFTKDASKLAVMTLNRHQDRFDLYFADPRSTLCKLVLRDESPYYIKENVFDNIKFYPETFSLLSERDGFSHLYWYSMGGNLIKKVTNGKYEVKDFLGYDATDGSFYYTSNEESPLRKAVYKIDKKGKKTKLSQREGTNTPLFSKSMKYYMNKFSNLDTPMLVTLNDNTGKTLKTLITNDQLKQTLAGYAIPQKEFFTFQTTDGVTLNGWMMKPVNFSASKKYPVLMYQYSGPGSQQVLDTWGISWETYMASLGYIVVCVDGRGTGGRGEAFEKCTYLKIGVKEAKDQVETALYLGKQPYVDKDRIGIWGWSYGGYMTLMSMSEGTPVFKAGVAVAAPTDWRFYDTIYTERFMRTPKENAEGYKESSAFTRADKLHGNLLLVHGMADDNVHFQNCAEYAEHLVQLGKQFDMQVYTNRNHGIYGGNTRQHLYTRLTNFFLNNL

IC50 [nM]	SMILES
445 ± 23	CC#CCn1c(N2CCC[C@@H](N)C2)nc2c1c(=O)n(Cc1nc(C)c3ccccc3n1)c(=O)n2C [linagliptin]
10.3 ± 0.7	N#C[C@@H]1C[C@@H]2C[C@@H]2N1C(=O)[C@@H](N)C12CC3CC(CC(O)(C3)C1)C2 [saxagliptin]
2150 ± 162	N[C@@H](CC(=O)N1CCn2c(nnc2C(F)(F)F)C1)Cc1cc(F)c(F)cc1F [sitagliptin]
12.4 ± 0.1	CC(C)[C@H](N)C(=O)N1CCC[C@H]1B(O)O [talabostat]
